In patent US12103919B2, “3-(5-oxy)-1-oxoisoindolin-2-yl)piperidine-2,6-dione derivatives and uses thereof” (NOVARTIS AG, priority 2021, dated 2024):
Like-named read-outs stand apart in the source and are kept apart here.

Target: T1, WIZ (Homo sapiens, UniProt O95785+Q96SW2)
T1 construct: expressed in transfected cells
Experiment: Quantification of WIZ protein levels in HiBit tag fusion protein assay (293T cells)
Format: cell-based
Set-up: Dmax: dose or concentration left out as unconfirmed
Settings: for remaining activity at 25 µM / Dmax at 25 µM / Dmax: HEK-293T; for remaining activity at 25 µM: read-out: WIZ Amax; for Dmax at 25 µM / % degradation of WIZ (100 − Amax): 100 − Amax, at 25 uM; for Dmax at 25 µM / Dmax: read-out: % degradation of WIZ (100 − Amax); for DC50: WIZ HiBit assay in 293T cells, about 18 hours, 10-point 5-fold dilution, top 25 μM, read-out: WIZ AC50
Protocol: The HiBit system from Promega was used to develop high-throughput and quantitative assays to measure changes in WIZ protein levels in response to compounds. The HiBit tag was derived from a split Nanoluciferase and has the following protein sequence: […] (SEQ ID NO: 1). The complementary fragment of Nanoluciferase (known as LgBit, from Promega), was added to the HiBit tag to form an active Nanoluciferase enzyme whose activity can be precisely measured. In this way, the levels of a fusion protein with the HiBit tag can be quantified in cell lysates.
Lentiviral vectors, based on the Invitrogen™ pLenti6.2/V5 DEST backbone were constructed that places the HiBit tag upstream of WIZ and expressed the fusion protein from an HSVTK promotor.
To ensure moderate and consistent expression of the HiBit-WIZ fusion protein across all cells in the population, stable cell lines were constructed from cells harboring a single copy of the construct. Lentivirus packaged with the constructs were made using the ViraPowerTMkit from Invitrogen™. 293T cells from ATCC (Catalog number: CRL-3216), were infected with the virus at low multiplicity of infection and selected by 5 μg/mL blasticidin in culture media for 2 weeks.
The levels of HiBit-WIZ tagged fusion proteins in compound-treated cell lines were measured as follows:
On day 1, cells were diluted to 1.0×10^6 cells/ml in normal growth medium. 20 μL of cell suspension were plated in each well of a solid white 384-well plate. Plates were incubated overnight in a 37° C. and 5% CO2 humidified tissue culture incubator.
On day 2, serial dilutions of compounds were made in 384-well plates. Compound plates were set up with DMSO in columns 1, 2, 23, 24, and 10-point compound dilution series in column 3-12 and column 13-22. 10 mM stock solution of compound were placed into column 3 or 13 and a 1:5 serial dilution was carried out until there was a 10-point dilution series per compound. 50 nL of diluted compounds were transferred into the plated cells by Echo® (Labcyte) acoustic transfer. The highest concentration of compound was 25 μM. Plates were incubated overnight (about 18 hours) in a 37° C. and 5% CO2 humidified tissue culture incubator.
On day 3, plates were removed from the incubator and allowed to equilibrate at room temperature for 60 minutes. HiBit substrate (Nano-Glo® HiBit Lytic Detection System, Promega Catalogue number: N3050) was added as described by the manufacturers protocols. Plates were incubated at room temperature for 30 minutes and luminescence was read using an EnVision® reader (PerkinElmer®). Data was analyzed and visualized using the Spotfire® software package.
WIZ Amax reflects the DMSO-normalized, curve-fitted percentage of WIZ-HiBit remaining at 25 uM. It was calculated by normalizing DMSO controls to 100%, parametric curve fitting of the dose response data (10-point, 5-fold), followed by calculation of response at 25 uM using the fitted equation.

[1] = DMSO-normalized, curve-fitted percentage of WIZ-HiBit remaining at 25 uM

T1 sequence (O95785 whole entry): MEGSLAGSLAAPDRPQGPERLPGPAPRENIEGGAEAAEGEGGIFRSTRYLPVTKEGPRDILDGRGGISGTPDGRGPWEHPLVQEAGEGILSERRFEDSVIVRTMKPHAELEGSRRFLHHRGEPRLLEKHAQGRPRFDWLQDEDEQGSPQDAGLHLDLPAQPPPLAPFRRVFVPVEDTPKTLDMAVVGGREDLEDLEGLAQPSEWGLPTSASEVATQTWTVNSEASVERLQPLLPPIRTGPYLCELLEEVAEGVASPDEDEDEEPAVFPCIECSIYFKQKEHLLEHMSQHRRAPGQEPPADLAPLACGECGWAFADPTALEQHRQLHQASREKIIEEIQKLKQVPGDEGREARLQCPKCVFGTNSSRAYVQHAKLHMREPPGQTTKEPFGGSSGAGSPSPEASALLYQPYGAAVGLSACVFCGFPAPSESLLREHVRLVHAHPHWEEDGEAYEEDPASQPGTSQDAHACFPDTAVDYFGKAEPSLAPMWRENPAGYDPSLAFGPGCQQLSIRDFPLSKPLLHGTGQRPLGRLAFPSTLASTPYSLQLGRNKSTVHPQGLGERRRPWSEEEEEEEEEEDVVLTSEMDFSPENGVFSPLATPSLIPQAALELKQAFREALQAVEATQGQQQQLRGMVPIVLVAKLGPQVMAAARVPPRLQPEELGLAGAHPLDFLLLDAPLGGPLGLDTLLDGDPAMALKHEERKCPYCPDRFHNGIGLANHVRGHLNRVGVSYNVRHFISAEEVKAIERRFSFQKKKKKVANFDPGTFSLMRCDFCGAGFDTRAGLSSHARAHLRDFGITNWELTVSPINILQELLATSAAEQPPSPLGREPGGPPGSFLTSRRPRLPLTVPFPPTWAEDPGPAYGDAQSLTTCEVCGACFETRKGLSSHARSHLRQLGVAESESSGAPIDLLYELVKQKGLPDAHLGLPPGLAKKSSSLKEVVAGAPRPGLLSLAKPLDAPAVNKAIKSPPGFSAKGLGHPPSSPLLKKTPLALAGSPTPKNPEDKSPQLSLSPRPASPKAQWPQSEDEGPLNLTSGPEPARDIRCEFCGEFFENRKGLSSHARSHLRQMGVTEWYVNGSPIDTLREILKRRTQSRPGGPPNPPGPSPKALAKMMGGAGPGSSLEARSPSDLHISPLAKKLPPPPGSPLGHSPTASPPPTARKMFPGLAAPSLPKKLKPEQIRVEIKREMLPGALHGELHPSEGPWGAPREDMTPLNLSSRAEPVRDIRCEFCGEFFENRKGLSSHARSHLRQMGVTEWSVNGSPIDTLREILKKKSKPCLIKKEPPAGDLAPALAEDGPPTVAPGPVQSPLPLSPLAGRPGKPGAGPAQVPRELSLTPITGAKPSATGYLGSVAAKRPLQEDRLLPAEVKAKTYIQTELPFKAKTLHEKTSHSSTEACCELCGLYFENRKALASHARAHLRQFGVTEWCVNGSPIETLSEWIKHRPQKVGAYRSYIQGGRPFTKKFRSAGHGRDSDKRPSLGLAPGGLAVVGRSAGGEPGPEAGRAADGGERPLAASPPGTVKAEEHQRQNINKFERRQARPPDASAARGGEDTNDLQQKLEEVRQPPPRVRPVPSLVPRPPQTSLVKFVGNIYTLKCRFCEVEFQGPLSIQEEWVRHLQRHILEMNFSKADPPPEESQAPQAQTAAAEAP
T1 sequence (Q96SW2 whole entry): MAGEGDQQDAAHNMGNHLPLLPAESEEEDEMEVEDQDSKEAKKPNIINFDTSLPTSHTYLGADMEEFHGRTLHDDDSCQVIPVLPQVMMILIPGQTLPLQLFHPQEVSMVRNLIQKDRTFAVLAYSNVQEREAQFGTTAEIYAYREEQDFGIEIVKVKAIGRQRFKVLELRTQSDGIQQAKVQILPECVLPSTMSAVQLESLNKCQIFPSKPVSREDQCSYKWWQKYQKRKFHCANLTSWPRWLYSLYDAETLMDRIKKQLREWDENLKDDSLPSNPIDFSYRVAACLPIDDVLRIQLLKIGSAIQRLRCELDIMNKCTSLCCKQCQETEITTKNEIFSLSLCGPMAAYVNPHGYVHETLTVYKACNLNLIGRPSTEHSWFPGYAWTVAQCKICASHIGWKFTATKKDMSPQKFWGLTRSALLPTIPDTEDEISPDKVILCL
T1 sequence (Q16531 whole entry partner): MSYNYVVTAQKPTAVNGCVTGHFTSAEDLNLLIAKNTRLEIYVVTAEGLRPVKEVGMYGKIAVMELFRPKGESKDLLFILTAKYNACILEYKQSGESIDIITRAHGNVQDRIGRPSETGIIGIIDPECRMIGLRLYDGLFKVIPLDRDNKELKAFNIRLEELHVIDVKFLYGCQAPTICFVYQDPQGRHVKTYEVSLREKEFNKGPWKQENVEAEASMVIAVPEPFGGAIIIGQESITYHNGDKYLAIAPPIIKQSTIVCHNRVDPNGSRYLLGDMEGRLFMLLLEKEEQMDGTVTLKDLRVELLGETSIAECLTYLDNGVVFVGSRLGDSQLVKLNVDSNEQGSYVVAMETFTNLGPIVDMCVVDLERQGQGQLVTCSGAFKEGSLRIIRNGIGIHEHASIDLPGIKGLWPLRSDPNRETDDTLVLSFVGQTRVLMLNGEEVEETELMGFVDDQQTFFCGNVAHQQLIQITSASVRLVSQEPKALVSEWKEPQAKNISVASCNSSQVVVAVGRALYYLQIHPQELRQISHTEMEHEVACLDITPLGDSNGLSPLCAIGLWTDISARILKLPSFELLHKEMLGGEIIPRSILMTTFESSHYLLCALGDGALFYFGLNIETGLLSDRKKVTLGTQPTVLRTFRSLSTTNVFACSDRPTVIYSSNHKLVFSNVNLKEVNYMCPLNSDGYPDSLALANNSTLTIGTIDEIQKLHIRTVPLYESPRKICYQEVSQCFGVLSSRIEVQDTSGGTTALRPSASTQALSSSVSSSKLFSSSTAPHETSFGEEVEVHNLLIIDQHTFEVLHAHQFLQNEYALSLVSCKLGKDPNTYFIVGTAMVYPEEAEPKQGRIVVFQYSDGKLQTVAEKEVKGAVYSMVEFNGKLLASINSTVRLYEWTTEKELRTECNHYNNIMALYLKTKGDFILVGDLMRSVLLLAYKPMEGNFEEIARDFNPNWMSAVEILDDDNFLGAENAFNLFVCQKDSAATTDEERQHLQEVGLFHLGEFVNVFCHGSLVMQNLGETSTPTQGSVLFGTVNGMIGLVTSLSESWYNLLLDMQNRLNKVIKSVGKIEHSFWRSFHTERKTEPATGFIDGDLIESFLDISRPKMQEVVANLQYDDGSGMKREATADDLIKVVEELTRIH

| SMILES | remaining activity at 25 µM [1] [%] | Dmax at 25 µM [%] | DC50 [nM] | Dmax [%] | remaining activity at 25 µM [%] | WIZ Amax [1] [%] | % degradation of WIZ (100 − Amax) [%] |
| --- | --- | --- | --- | --- | --- | --- | --- |
| O=C1CCC(N2Cc3cc(O[C@@H]4CCCN(C5CC(F)(F)C5)C4)ccc3C2=O)C(=O)N1 (mixture of isomers) [Example 29, 3-(5-(((R)-1-(3,3-difluorocyclobutyl)piperidin-3-yl)oxy)-1-oxoisoindolin-2-yl)piperidine-2,6-dione] | 69 | 31 | 82 | – | – | – | – |
| CCN1C[C@H](C)C[C@@H](Oc2ccc3c(c2)CN(C2CCC(=O)NC2=O)C3=O)C1 (mixture of isomers) [Example 75-1, 3-(5-(((3R,5R)-1-ethyl-5-methylpiperidin-3-yl)oxy)-1-oxoisoindolin-2-yl)piperidine-2,6-dione] | – | – | 0.9 | 86.6 | 13.4 | – | – |
| CCN1C[C@H](O)C[C@@H](Oc2ccc3c(c2)CN(C2CCC(=O)NC2=O)C3=O)C1 (mixture of isomers) [Example 34, rac-3-(5-(((3R,5R)-1-Ethyl-5-hydroxypiperidin-3-yl)oxy)-1-oxoisoindolin-2-yl)piperidine-2,6-dione] | – | – | 15 | 80 | 20 | – | – |
| CCN1CC[C@H](C)[C@@H](Oc2ccc3c(c2)CN(C2CCC(=O)NC2=O)C3=O)C1 (mixture of isomers) [Example 35, rac-3-(5-(((3R,4S)-1-ethyl-4-methylpiperidin-3-yl)oxy)-1-oxoisoindolin-2-yl)piperidine-2,6-dione] | – | – | 26 | 31.9 | 68.1 | – | – |
| CCN1CCC[C@@H](Oc2ccc3c(c2)CN(C2CCC(=O)NC2=O)C3=O)[C@H]1C (mixture of isomers) [Example 44, rac-3-(5-(((2R,3R)-1-ethyl-2-methylpiperidin-3-yl)oxy)-1-oxoisoindolin-2-yl)piperidine-2,6-dione] | – | – | 60 | 15.8 | 84.2 | – | – |
| CCN1C[C@@H](C)C[C@@H](Oc2ccc3c(c2)CN(C2CCC(=O)NC2=O)C3=O)C1 (mixture of isomers) [Example 45, rac-3-(5-(((3R,5S)-1-ethyl-5-methylpiperidin-3-yl)oxy)-1-oxoisoindolin-2-yl)piperidine-2,6-dione] | – | – | 7.6 | 43.7 | 56.3 | – | – |
| CCN1CC[C@@H](C)[C@@H](Oc2ccc3c(c2)CN(C2CCC(=O)NC2=O)C3=O)C1 (mixture of isomers) [Example 46, rac-3-(5-(((3R,4R)-1-ethyl-4-methylpiperidin-3-yl)oxy)-1-oxoisoindolin-2-yl)piperidine-2,6-dione] | – | – | > 25000 | – | 101 | – | – |
| CCN1C[C@@H](O)C[C@@H](Oc2ccc3c(c2)CN(C2CCC(=O)NC2=O)C3=O)C1 (mixture of isomers) [Example 47, rac-3-(5-(((3R,5S)-1-ethyl-5-hydroxypiperidin-3-yl)oxy)-1-oxoisoindolin-2-yl)piperidine-2,6-dione] | – | – | 88 | 22.8 | 77.2 | – | – |
| CCN1C[C@H](C)C[C@@H](Oc2ccc3c(c2)CN(C2CCC(=O)NC2=O)C3=O)C1 (mixture of isomers) [Example 52, rac-3-(5-(((3R,5R)-1-Ethyl-5-methylpiperidin-3-yl)oxy)-1-oxoisoindolin-2-yl)piperidine-2,6-dione] | – | – | 5.5 | 76.2 | 23.8 | – | – |
| CCN1CCC2(CCC2)C(Oc2ccc3c(c2)CN(C2CCC(=O)NC2=O)C3=O)C1 (racemic) [Example 54, rac-3-(5-((7-ethyl-7-azaspiro[3.5]nonan-5-yl)oxy)-1-oxoisoindolin-2-yl)piperidine-2,6-dione] | – | – | > 25000 | – | 102 | – | – |
| CCN1CC2CC(Oc3ccc4c(c3)CN(C3CCC(=O)NC3=O)C4=O)C1C2 (racemic) [Example 62, rac-3-(5-((2-ethyl-2-azabicyclo[2.2.1]heptan-6-yl)oxy)-1-oxoisoindolin-2-yl)piperidine-2,6-dione] | – | – | 83 | 27.1 | 72.9 | – | – |
| CCN1C[C@@H]2C[C@@H]2[C@H](Oc2ccc3c(c2)CN(C2CCC(=O)NC2=O)C3=O)C1 (relative stereo) [Example 53, 3-(5-(((1R*,5S*,6S*)-3-ethyl-3-azabicyclo[4.1.0]heptan-5-yl)oxy)-1-oxoisoindolin-2-yl)piperidine-2,6-dione] | 78.2 | 21.8 | 71 | – | – | – | – |
| CCN1CC[C@H](F)[C@@H](Oc2ccc3c(c2)CN(C2CCC(=O)NC2=O)C3=O)C1 (relative stereo) [Example 55, 3-(5-(((3S*,4S*)-1-ethyl-4-fluoropiperidin-3-yl)oxy)-1-oxoisoindolin-2-yl)piperidine-2,6-dione] | – | – | 26 | 44.9 | 55.1 | – | – |
| CCN1CC[C@@H](F)[C@H](Oc2ccc3c(c2)CN(C2CCC(=O)NC2=O)C3=O)C1 (relative stereo) [Example 56, 3-(5-(((3R*,4R*)-1-ethyl-4-fluoropiperidin-3-yl)oxy)-1-oxoisoindolin-2-yl)piperidine-2,6-dione] | – | – | 950 | 16.2 | 83.8 | – | – |
| CCN1CC[C@@H](F)[C@@H](Oc2ccc3c(c2)CN(C2CCC(=O)NC2=O)C3=O)C1 (relative stereo) [Example 57, 3-(5-(((3S*,4R*)-1-ethyl-4-fluoropiperidin-3-yl)oxy)-1-oxoisoindolin-2-yl)piperidine-2,6-dione] | – | – | 170 | 16.9 | 83.1 | – | – |
| CCN1CC[C@H](F)[C@H](Oc2ccc3c(c2)CN(C2CCC(=O)NC2=O)C3=O)C1 (relative stereo) [Example 58, 3-(5-(((3R*,4S*)-1-ethyl-4-fluoropiperidin-3-yl)oxy)-1-oxoisoindolin-2-yl)piperidine-2,6-dione] | – | – | 4.9 | 60.7 | 39.3 | – | – |
| CCN1CC(Oc2ccc3c(c2)CN(C2CCC(=O)NC2=O)C3=O)CC2(CC2)C1 (single isomer, unassigned) [Example 18, 3-(5-((5-ethyl-5-azaspiro[2.5]octan-7-yl)oxy)-1-oxoisoindolin-2-yl)piperidine-2,6-dione] | – | – | 20 | – | – | 61.38 | 38.62 |
| CCN1CC(Oc2ccc3c(c2)CN(C2CCC(=O)NC2=O)C3=O)CC2(CC2)C1 (single isomer, unassigned) [Example 19, 3-(5-((5-ethyl-5-azaspiro[2.5]octan-7-yl)oxy)-1-oxoisoindolin-2-yl)piperidine-2,6-dione] | – | – | 12 | – | – | 37.13 | 62.87 |
| CCN1C[C@H]2C[C@H]2[C@H](Oc2ccc3c(c2)CN(C2CCC(=O)NC2=O)C3=O)C1 (single isomer, unassigned) [Example 20, 3-(5-(((1S*,5S*,6R*)-3-ethyl-3-azabicyclo[4.1.0]heptan-5-yl)oxy)-1-oxoisoindolin-2-yl)piperidine-2,6-dione] | 75.9 | 24.1 | 3750 | – | – | – | – |
| CCN1C[C@@H]2C[C@@H]2[C@@H](Oc2ccc3c(c2)CN(C2CCC(=O)NC2=O)C3=O)C1 (single isomer, unassigned) [Example 21, 3-(5-(((1R*,5R*,6S*)-3-ethyl-3-azabicyclo[4.1.0]heptan-5-yl)oxy)-1-oxoisoindolin-2-yl)piperidine-2,6-dione] | 25.7 | 74.3 | 3.5 | – | – | – | – |
